Data: US12233041B2, “Disulfonate stilbenes for use in the treatment of proliferative diseases” (UNIVERSITÉ DE NANTES, priority 2018, dated 2025)
“Also recorded” adds a separate entry of the source.

Assays:
Rad51 = target: T1, Rad51 (Homo sapiens, UniProt Q06609); test: RAD51 nucleofilament formation by Bio-Layer Interferometry (BLItz), binding of Rad51 to ssDNA
T1 sequence (Q06609 1-339): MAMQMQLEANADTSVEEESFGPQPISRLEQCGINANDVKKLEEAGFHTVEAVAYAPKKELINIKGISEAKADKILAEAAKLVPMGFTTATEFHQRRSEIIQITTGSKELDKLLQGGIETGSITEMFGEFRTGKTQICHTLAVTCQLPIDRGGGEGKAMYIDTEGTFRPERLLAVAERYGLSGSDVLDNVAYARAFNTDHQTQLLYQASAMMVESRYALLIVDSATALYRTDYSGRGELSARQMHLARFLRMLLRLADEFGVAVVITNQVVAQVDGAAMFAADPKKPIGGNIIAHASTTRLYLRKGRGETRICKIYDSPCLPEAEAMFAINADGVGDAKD
Method: The binding of Rad51 to ssDNA was monitored and quantified by Bio-Layer Interferometry technology using the BLItz platform (FortéBio Inc.). The procedure includes four steps: (1) the baseline in buffer A containing 1×PBS, 10 mM MgCl2 and 0.0075% Tween20 was recorded for 20 s; (2) loading and binding of Rad51 were measured for 40 s using 1.5 μM Rad51 and 1 mM ATP in buffer A; (3) the dissociation of Rad51 from ssDNA was recorded for 20 s in buffer A; (4) the ssDNA biosensor was regenerated using baths of 50 mM NaOH. Except for the step 2, which used 4 μL drop of the protein sample, the steps 1, 3 and 4 used 250 μL solutions in 0.5 mL tube. The measurement parameters were as follows: room temperature measurement and stirring speed of 2200 rpm. To investigate the effect of CSB and analogs to the ssDNA binding of Rad51, the molecule was included in the protein sample of the step 2 at the indicated concentrations and incubated for 5 min before loading on the biosensor. (Normand, A. et al., “Identification and characterization of human Rad51 inhibitors by screening of an existing drug library.”, Biochemical Pharmacology, October 2014, Vol. 91, No. 3, pp. 293-300).
A test based on interferometry (Blitz®, Fortebio) allows the measure of the association kinetics of RAD51 protein with a single-stranded DNA immobilized on a biosensor support in the presence or absence of an inhibitor. The effect of compounds B-1, B-2, B-3, BPQ and X-4 on RAD51 nucleofilament formation has been evaluated in presence of increasing doses of inhibitors. The results are presented on FIG. 2.

[1] = system: recombinant fibroblast line RG37; test: Intracellular homologous recombination (HR), GFP reconstitution after I-SceI cleavage, flow cytometry; format: cell-based; details: RG37 cells, 72 h after pCMV-HA-I-SceI transfection; FIG. 3
Method: After transfection with the pCMV-HA-I-SceI plasmid and incubation for 72 h, the cells were collected in PBS and 50 mM EDTA, pelleted and fixed with 2% paraformaledhyde for 20 min. The percentage of GFP-expressing cells was scored by FACS analysis using Cytoflex (Beckman Coulter). At least 3 independent experiments were performed, and HA-I-SceI expression was verified each time by Western blot with rabbit anti-HA antibody (Abcam).
The recombinant fibroblast line RG37 is used to confirm in vitro results (Examples 2-5) in the cellular context. This cellar line comprises two non-functional GFP cassettes, one of which has a unique cleavage site inducible by transfection of a restriction enzyme. After cleavage, which is equivalent to a double-strand break (DSB) of the DNA, the homologous recombination (HR) leads to the reconstitution of a complete GFP cassette thus making the cell fluorescent. The rate of intracellular HR is then determined by measurement in flow cytometry so as to measure the level of HR in cells after treatment with compounds C-3, B-2 and X-2.

[2] = system: RAD51 foci in DU-145 cells; test: Rad51 foci quantification by immunofluorescence; format: cell-based; details: DU-145, B-2 20 μM + cisplatin 30 μM; FIG. 8
Method: DU-145 cells were grown on coverslips (Life Technologies) at a density of 5×10^3 cells per well in medium (RPMI) supplemented with 10% fetal bovine serum (Gibco-Invitrogen). Cells were treated with Cisplatin at 30 μM for 1 hour in presence or in absence of RAD51 inhibitor B-2 at 20 μM, and then the medium was replaced with molecule-free medium. After 18 h, cells were washed once in PBS for 5 min and fixed with ethanol absolute for 25 min.
The fixed cells were incubated for 1 h in the PBS buffer containing 1:1000 diluted anti-RAD51 antibody at room temperature. After three 5-min washes in PBS, slides were incubated with PBS solution containing the secondary antibody conjugated with AlexaFluor 555 ([…]) for 45 min in dark room. […] The images were recorded with NIS Element software (Version 3.6, Nikon, Tokyo, Japan). The quantification of RAD51 foci was processed with a program derived from Fiji-ImageJ software (NIH, Bethesda, Maryland, USA). […]
The treatment with Cisplatin alone induces a high level of RAD51 foci, whereas this level is decreased when the treatment is associated with B-2 20 μM. After the quantification of the number of RAD51 foci per cell, the number of cells containing more than 20 RAD51 foci was determined.

activity on nucleofilament formation compared with reference molecule BPQ (Rad51; FIG. 2): comparable to or even better
effect on nucleofilament formation compared with DIDS (Rad51; high dose (50 μM)): same effect
activity on nucleofilament formation compared with reference molecule DIDS (Rad51; low dose (5 μM)): comparable
SMILES: N#Cc1ccc(/C=C/c2ccc(C#N)cc2S(=O)(=O)[O-])c(S(=O)(=O)[O-])c1.[Na+].[Na+] [B-2, Sodium (E)-6,6′-(ethene-1,2-diyl)bis(3-cyanobenzenesulfonate)]
formation of RAD51 protein nucleofilament (relative binding of RAD51 protein with single-stranded DNA) (Rad51; increasing doses of inhibitors, FIG. 2): inhibit; also recorded: very strongly diminished
intracellular HR inhibition [1]: significant inhibitory effect
decrease of level of RAD51 foci mediated by cisplatin (cells containing more than 20 RAD51 foci) [2]: about 20%
